Laboratory results: ChEMBL document CHEMBL4330120, “Identification of selective and reversible LSD1 inhibitors with anti-metastasis activity by high-throughput docking” (Bioorg Med Chem Lett, 2019)

Legend:
in vitro [1] = details: human, SW620 cells
Description: Cytotoxicity against human SW620 cells assessed as inhibition of cell proliferation at 100 uM after 4 hrs by MTT assay relative to control

in vitro [2] = details: human, HCT8 cells
Description: Cytotoxicity against human HCT8 cells assessed as inhibition of cell proliferation at 100 uM after 4 hrs by MTT assay relative to control

[3] = target: T1, Amine oxidase [flavin-containing] B (Homo sapiens, UniProt P27338); test: biochemical
T1 sequence (P27338 whole entry): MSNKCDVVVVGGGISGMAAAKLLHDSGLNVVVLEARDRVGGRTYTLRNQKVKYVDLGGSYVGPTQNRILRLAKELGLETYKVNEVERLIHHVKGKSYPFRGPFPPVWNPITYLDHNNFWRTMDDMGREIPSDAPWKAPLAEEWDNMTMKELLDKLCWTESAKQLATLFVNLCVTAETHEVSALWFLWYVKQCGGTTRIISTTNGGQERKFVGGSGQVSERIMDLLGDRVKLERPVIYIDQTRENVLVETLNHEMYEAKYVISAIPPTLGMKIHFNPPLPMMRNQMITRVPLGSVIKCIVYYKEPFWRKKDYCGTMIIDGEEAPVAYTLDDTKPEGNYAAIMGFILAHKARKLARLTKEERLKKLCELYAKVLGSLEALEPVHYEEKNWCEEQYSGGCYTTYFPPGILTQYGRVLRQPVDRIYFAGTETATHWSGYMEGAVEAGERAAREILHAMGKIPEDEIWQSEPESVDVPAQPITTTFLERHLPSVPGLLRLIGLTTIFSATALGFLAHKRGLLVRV
Description: Inhibition of recombinant human MAOB expressed in baculovirus infected BTI insect cells using beetle luciferin as substrate after 1 hr by MAO-Glo assay

[4] = target: T2, Amine oxidase [flavin-containing] A (Homo sapiens, UniProt P21397); test: biochemical
T2 sequence (P21397 whole entry): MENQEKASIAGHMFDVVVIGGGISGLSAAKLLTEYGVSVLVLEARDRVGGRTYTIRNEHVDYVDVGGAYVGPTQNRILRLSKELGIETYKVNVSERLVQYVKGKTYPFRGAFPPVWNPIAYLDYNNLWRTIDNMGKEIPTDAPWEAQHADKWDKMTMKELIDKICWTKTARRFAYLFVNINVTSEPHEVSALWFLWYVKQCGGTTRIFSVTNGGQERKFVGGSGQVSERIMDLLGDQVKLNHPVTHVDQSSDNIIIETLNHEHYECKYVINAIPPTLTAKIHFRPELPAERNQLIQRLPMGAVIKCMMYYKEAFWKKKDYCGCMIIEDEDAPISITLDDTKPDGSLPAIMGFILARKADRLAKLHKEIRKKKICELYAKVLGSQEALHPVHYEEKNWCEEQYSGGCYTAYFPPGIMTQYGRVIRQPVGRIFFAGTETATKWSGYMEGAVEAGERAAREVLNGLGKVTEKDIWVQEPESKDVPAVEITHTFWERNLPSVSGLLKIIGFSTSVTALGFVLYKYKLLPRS
Description: Inhibition of recombinant human MAOA expressed in baculovirus infected BTI insect cells using beetle luciferin as substrate after 1 hr by MAO-Glo assay

[5] = target: Lysine-specific histone demethylase 1A (Homo sapiens, UniProt O60341)
Description: Inhibition of human N-terminal GST-tagged LSD1 isoform2 (158 to end residues) expressed in Escherichia coli using methylated peptide as substrate preincubated with substrate for 15 mins followed by enzyme addition and measured after 30 mins by amplex red and horseradish peroxidase based fluorescence assay

inhibition at 4 h, 100 µM (in vitro [1])	inhibition at 4 h, 100 µM (in vitro [2])	IC50 [3]	IC50 [4]	IC50 [5]	SMILES
35%	35%	> 200 µM	> 200 µM		O=C(CCC1NC(=O)NC1=O)NCCc1c[nH]c2ccccc12 (stereo not given)
				> 100 µM	Cc1nc(-c2ccc(CN(C)Cc3cccc4cnccc34)cc2)[nH]c(=O)c1F
